According to patent US20210221862A1, “APPLICATION OF PEDF-DERIVED SHORT PEPTIDES IN THE TREATMENT OF OSTEOARTHRITIS” (BRIM Biotechnology, Inc., priority 2018, published 2021):

Legend:
[1] = system: rat model of MIA-induced OA; test: MIA-induced hind paw weight-bearing shift (incapacitance tester), rat OA model; format: in vivo; settings: for MIA-induced weight shift (hind paw weight-bearing): vehicle/HA 75.9±4.7%
Method: (§1) Adult 10-wk-old male Sprague-Dawley rats (initial body wt=312±11 g) were anesthetized by an intraperitoneal injection of Xylazine (10 mg/kg). After that, their right knees were each treated with a single intraarticular injection of 1 mg of MIA in 25 μl of sterile saline. The solution was injected through the patellar ligament using a 27 G needle with the leg flexed at a 90° angle at the knee. Seven days after MIA injection, the […] were randomly assigned to different experimental groups (n 3, each group). For treatments of the rat model of MIA-induced OA, PDSP peptide was dissolved in 25 μl of 1% HA, and the peptide solvent DMSO was used as a vehicle/HA control.
Changes in hind paw weight distributions between the right (osteoarthritic) and left (contralateral control) limbs were used as an index of joint discomfort in the osteoarthritic knee. An incapacitance tester was employed for determination of hind paw weight distributions, as previously described (Bove et al., Weight bearing as a measure of disease progression and efficacy of anti-inflammatory compounds in a model of monosodium iodoacetate-induced osteoarthritis. Osteoarth Cart., 2003; 11:821-830). Rats were placed in an angled plexiglass chamber positioned so that each hind paw rested on a separate force plate. The force exerted by each hind limb (measured in grams) is averaged over a 5-s period. Each data point is the mean of three, 5-s readings. The change in hind paw weight distribution was calculated by determining the difference in the amounts of weights (g) exerted on the tester between the left and right limbs. Results are presented as either the difference in weight bearing between the left (contralateral control) limb and right (osteoarthritic) limbs or as the percent difference between the baseline reading and the post-treatment reading, as calculated using the following equation:
(1−(mean Δweight of treated group/mean Δ weight of vehicle group))×(100)
To investigate whether PDSP (PEDF short peptide) has antinociceptive effects to ameliorate the joint discomfort, 10-wk-old male Sprague-Dawley rats (n=15) were subjected to intraarticular injection of 1 mg of MIA (dissolved in 25 μl of sterile saline) into right joint to induce a maximum degree of weight shift (from right to left leg) and then used to investigate the pharmacologic response of the 29-mer PDSP (SEQ ID NO:1). […]
In the animal study, the 29-mer PDSP variants were formulated into 1% HA to final a concentration of 0.2 mM and then applied by way of a single intraarticular injection each on day 1 and day 8 post-MIA injection. After 29-mer variant treatments for 14 days, the antinociceptive effects of the 29-mer variants (n=3 per group) on MIA-induced hind paw weight-bearing shifts were evaluated with an incapacitance tester.

rat MSCs = test: Chondrogenic differentiation of MSCs, GAG by Alcian blue staining; format: cell-based; settings: 10 μM peptide in medium with dexamethasone and TGF-β3, 21 days; DMSO control 0.15±0.024
Method: Adult 8-wk-old male Sprague-Dawley rats were anesthetized with an intraperitoneal injection of Xylazine (10 mg/kg). After that, their femurs were aseptically harvested, washed in a mixture of PBS and antibiotics for 5 minutes, and then they were dissected off of all soft tissue, transected at their epiphysis, and their marrow cavity rinsed repeatedly with a mixture of heparin (AGGLUTEX INJ 5000 U/ML 5 ML; working conc. 100 U/ml) and DMEM. The harvested cells were collected, dispersed by pipetting, and centrifuged at 1000×g for 5 minutes at RT. Cell pellets were resuspended with DMEM, and then the cell suspension was transferred to a 15-ml centrifuge tube containing 5 ml of Percoll (1.073 g/ml). […]
For Alcian blue staining, cultures were rinsed twice with PBS, fixed in 4% (w/v) paraformaldehyde for 15 min, and then incubated in 1% (w/v) Alcian blue 8-GX (Sigma) in 0.1 N HCl (pH 1.0) overnight as previously described (Ji Y. H. et al., Quantitative proteomics analysis of chondrogenic differentiation of C3H10T1/2 mesenchymal stem cells by iTRAQ labeling coupled with on-line two-dimensional LC/MS/MS, Mol. Cell. Proteom., 2010, 9(3): 550-564.). For semi-quantitative analysis, Alcian blue-stained cultures were extracted with 6 M guanidine HCl for 2 h at room temperature. The absorption of the extracted dye was measured at 650 nm in a microplate reader (Bio-Rad). […]

[2] = system: chondrogenic cells in damaged articular cartilage; test: In vivo DNA synthesis: BrdU / Sox9 staining of damaged articular cartilage, MIA-induced OA; parameters: species or system rat
Method: as §1
For detection of cell proliferation, BrdU was reconstituted in DMSO as stock (80 mM). […] DNA synthesis was assessed by BrdU labeling, as detected with anti-BrdU antibodies.
To detect DNA synthesis in vivo, paraffin-embedded joint specimens were deparaffinized in xylene and rehydrated in a graded series of ethanol and then exposed to 1 N HCl at RT for 1 h for subsequent immunohistochemistry. […] Images were captured using a Zeiss epifluorescence microscope with a CCD camera and measured from 20 randomly-selected areas in each sample, and blind quantification was performed in triplicate by manually counting within each section. […]

[3] = system: MIA-damaged articular cartilage; test: Histological examination (H&E) of MIA-damaged articular cartilage; format: in vivo, rat; settings: 29-mer/HA from day 8 post-MIA for 2 weeks
Method: as §1
The knee joints were dissected, and the surrounding soft tissue was removed. Specimens were fixed in a 4% paraformaldehyde (PFA) solution and then were decalcified with Shandon TBD-2 decalcifier (Thermo Scientific, Logan, Utah). The joints were then sectioned mid-sagittally and embedded in paraffin blocks. Sections (5 μm in thickness) were longitudinally cut and stained with hematoxylin and eosin (H&E) or used for immunohistochemical examination. 20 sections per knee were carefully prepared so as to include the most severely degenerated area.
It has been established that rat knee joints injected with MIA can result in extensive chondrocyte degeneration/necrosis at day 7 post-MIA treatment in a rapid and reproducible manner. […]

SLGAEQRTESIIHRALYYDLISSPDIHGT (in 1% hyaluronic acid; listed as Homo sapiens) [29-mer, PEDF-derived short peptide, human PEDF residues 93-121]
MIA-induced weight shift (hind paw weight-bearing) ([1]; group II: 0.2 mM 29-mer in 1% HA, intraarticular on day 1, 4, 8, 12 (twice per week), 14 days): 63.3±12.5% | MIA-induced weight shift (hind paw weight-bearing) ([1]; group III: 29-mer alone (bolus, without HA), intraarticular day 1, 4, 8, 12): 77.2±1.2% | MIA-induced weight shift (hind paw weight-bearing) ([1]; group IV: 29-mer/HA, intraarticular once on day 1 and day 8 (once per week), 14 days): 58.1±4.6% | MIA-induced hind paw weight-bearing shift ([1]; variant study (FIG. 4): 0.2 mM peptide in 1% HA, intraarticular day 1 and day 8, after 14 days, vehicle/HA 47.1±3.7%): 22.0±0.66% | Alcian blue-positive material (GAG) at OD 650 nm (rat MSCs): 0.34±0.013 | Sox9 immunostaining of BrdU-positive cells ([2]; 0.2 mM 29-mer/HA, dual immunostaining, FIG. 5A): BrdU-positive cells were also Sox9 positive | BrdU-positive cells per field of cartilage region ([2]; 0.2 mM peptide in 1% HA, 14 days treatment, vehicle/HA 7±3): 346±57 | Chondrocytes in cartilage, H&E histology ([3]; vehicle/HA: chondrocytes lost from superficial zone): large numbers of newly generated chondrocytes throughout the cartilage | Cartilage integrity, H&E histology ([3]; vehicle/HA: loss of cartilage integrity): good surface continuity
